Assay results from publication PMC3066655 (Journal of medicinal chemistry, 2011).

Experiments:
σ2 receptor = molecular target: T1, σ2 receptor (Rattus norvegicus, UniProt Q5U3Y7); assay: σ2 receptor binding assay, [3H]-DTG, liver membrane homogenates; details: for D3/ σ2 ratio: ratio of D3 and σ2 Ki values
T1 sequence (Q5U3Y7 1-176): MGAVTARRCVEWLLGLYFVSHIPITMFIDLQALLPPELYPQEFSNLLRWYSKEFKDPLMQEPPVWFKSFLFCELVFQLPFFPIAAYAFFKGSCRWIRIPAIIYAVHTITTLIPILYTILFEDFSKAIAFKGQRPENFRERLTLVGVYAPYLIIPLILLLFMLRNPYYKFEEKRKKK

σ1 receptor = σ1 receptor (Cavia porcellus, UniProt Q60492); assay: σ1 receptor binding assay; design: species or system guinea pig; details: ratio of D3 and σ1 Ki values
Chain of σ1 receptor (Q60492 whole entry): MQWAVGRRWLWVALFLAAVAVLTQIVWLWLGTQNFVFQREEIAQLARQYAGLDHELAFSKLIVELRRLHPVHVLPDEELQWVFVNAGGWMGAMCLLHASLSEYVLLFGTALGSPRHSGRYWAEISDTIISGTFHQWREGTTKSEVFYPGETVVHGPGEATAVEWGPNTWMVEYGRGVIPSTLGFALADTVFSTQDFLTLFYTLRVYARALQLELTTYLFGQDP

Row | Ki (σ2 receptor) [nM] | D3/ σ1 Ratio (σ1 receptor) | D3/ σ2 ratio (σ2 receptor) | SMILES
1 | 660 ± 36 |  |  | COc1ccccc1N1CCN(CCCCNC(=O)c2ccc(OCCF)cc2)CC1 [Compound 18a, 4-(2-Fluoroethoxy)-N-(4-(4-(2-methoxyphenyl)-piperazin-1-yl)-butyl)benzamide]
2 | 2210 |  |  | COc1ccccc1N1CCN(CCCCNC(=O)c2ccc(CCF)cc2)CC1 [Compound 2, reference compound]
3 | 1570 | 1,573 | 1,970 | COc1ccccc1N1CCN(CCCCNC(=O)c2ccc(N(C)C)cc2)CC1 [Compound 1, 4-(Dimethylamino)-N-[4-(4-(2-methoxyphenyl)piperazin-1-yl)butyl]benzamide, reference compound]
4 | 1320 | 7,076 | 1,200 | O=C(NC/C=C/CN1CCN(c2ccccc2OCCF)CC1)c1ccc(-c2ccsc2)cc1.O=C(O)C(=O)O [Compound 21e, 4-(Thiophen-3-yl)-N-(4-(4-(2-(2-fluoroethoxy)phenyl)piperazin-1-yl)-trans-but-2-enyl)benzamide]
5 | 1120 | 1,159 |  | COc1ccccc1N1CCN(CCCCNC(=O)c2ccc(OCCOCCOCCF)cc2)CC1.O=C(O)C(=O)O [Compound 18c, 4-(2-(2-(2-Fluoroethoxy)ethoxy)ethoxy)-N-(4-(4-(2-methoxyphenyl)piperazin-1-l)butyl)benzamide]
6 | 2020 | 6,541 | 1,839 | O=C(NC/C=C/CN1CCN(c2ccccc2OCCF)CC1)c1ccc(CCF)cc1.O=C(O)C(=O)O [Compound 21b, 4-(2-Fluoroethyl)-N-(4-(4-(2-(2-Fluoroethoxy)phenyl)piperazin-1-yl)-trans-butyl-2-enyl)benzamide]
